Test results from a melting point compilation (Tetko et al.).

| melting point [°C] | Compound |
| --- | --- |
| 99 to 101 | Nc1nnc(SCc2ccccc2)[nH]1 |
| 190 to 192 | O=C(O)C1CCN(S(=O)(=O)c2ccc(F)c(Cl)c2)CC1 |
| 45 to 47 | CCOc1c(N)cc(Cl)cc1Br |
| 140 to 142 | Cn1[nH]c(-c2ccco2)c(-c2ccc3c(c2)OCO3)c1=N |
| 223 to 225 | O=C(O)c1cccc(S(=O)(=O)NCc2cccs2)c1 |
| 146 to 148 | O=Cc1ccc(OC(F)(F)C(=O)O)cc1 |
| 151 to 153 | O=C(O)c1ccc(CN2CCCC2=O)cc1 |
| 181 to 183 | COc1ccc(-n2c(N)nc3ccccc32)cc1 |
| 142 to 144 | O=C(O)CNS(=O)(=O)c1ccc(Cl)s1 |
| 97 to 99 | COc1ccc(CC2CC(=O)N2)cc1 (stereo not given) |
| 124 to 126 | O=C(O)C1CCCN1C(=O)c1ccccc1OC(F)F (stereo not given) |
| 195 to 197 | NCCNc1cn[nH]c(=O)c1Cl |
| 190 to 192 | CC(Cl)C(=O)c1c[nH]c2ccccc12 (stereo not given) |
| 62 to 64 | CN1CCc2ccc(S(=O)(=O)Cl)cc21 |
| 42 to 44 | O=C(c1ccccc1)c1ccc(F)cn1 |
| 134 to 136 | NS(=O)(=O)c1ccnc(Cl)c1 |
| 98 to 100 | CC(C)(O)c1cnc(Cl)nc1 |
| 227 to 229 | Cc1ccc(-n2nc(C(=O)O)c3ccccc3c2=O)cc1Cl |
| 77 to 79 | OCCNc1cccnn1 |
| 34 to 36 | CCn1nc(C)c(S(=O)(=O)Cl)c1C |
| 270 to 272 | Cc1nc(N)n(-c2ccc(C#N)cc2)n1 |
| 96 to 98 | CC(Cl)C(=O)Nc1cccc(Cl)c1Cl (stereo not given) |
| 54 to 56 | CS(=O)(=O)c1cccnc1 |
| 44 to 46 | COc1ccc(C=O)cc1SC |
| 59 to 61 | Cc1ccc(C(=O)NN)o1 |

| melting point [°C] | Compound |
| --- | --- |
| 256 to 258 | NC(=O)c1c[nH]nn1 |
| 286 to 288 | O=C(O)c1c[nH]c2ccc(I)cc2c1=O |
| 204 to 206 | Cn1cc(C(=O)O)c(-c2ccccc2)n1 |
| 78 to 80 | COc1c(F)c(F)c(N)c(F)c1F |
| 279 to 281 | N#Cc1ccc2cc(C(=O)O)ccc2c1 |
| 87 to 89 | CNc1ncccc1C#N |
| 190 to 192 | Cc1nn(C)cc1C(=O)O |
| 77 to 79 | Cc1ccc(S(=O)(=O)C2CCCCC2=O)cc1 (stereo not given) |
| 159 to 161 | Nc1cc(-c2cc(Cl)cc(Cl)c2)[nH]n1 |
| 87 to 89 | Nc1cccc(Cl)c1Sc1ccccn1 |
| 118 to 120 | COC(C)C(N)=NO (stereo not given) |
| 135 to 137 | CCOC(=O)C1=NN(CC)C(=O)C1 |
| 239 to 241 | O=C(O)c1cccc(=O)[nH]1 |
| 114 to 116 | Nc1cc(Br)ccc1-n1cncn1 |
| 137 to 139 | Nc1ccc(C(=O)NCCN2CCCC2)cc1 |
| 75 to 77 | CN(C(N)=O)c1ccccc1 |
| 114 to 116 | N#Cc1cccnc1-n1cccn1 |
| 121 to 123 | Cc1nc2ccccc2nc1CCl |
| 152 to 154 | Cc1ncc(C(=O)O)c(Cl)c1Br |
| 111 to 113 | O=[N+]([O-])c1cc(O)cc(F)c1 |
| 229 to 231 | CCc1c(C(=O)Nc2cc(S(=O)(=O)N(CC)CC)ccc2O)[nH]c(C)c1C(C)=O |
| 316 to 318 | CCn1c(=O)[nH]c(=O)c2cc(C(=O)O)cnc21 |
| 47 to 49 | CCCS(N)(=O)=O |
| 259 to 261 | Cc1ccc(O)c(-c2nc3ccccc3[nH]2)c1 |
| 89 to 91 | NC(=S)NC1CCCCCC1 |

| melting point [°C] | Compound |
| --- | --- |
| 153 to 155 | O=C(O)c1ccc2c(c1)C(=O)N(CC1CCCO1)C2=O (stereo not given) |
| 143 to 145 | CNC(=O)CN1CCc2ccc(N)cc21 |
| 178 to 180 | COc1ccc(C2C(C(=O)O)CCC(=O)N2c2ccc(OC)cc2)cc1 (stereo not given) |
| 81 to 83 | O=c1n(CCCO)nc2ccccn12 |
| 255 to 257 | Cc1cc(C(=O)O)ccc1S(N)(=O)=O |
| 239 to 241 | CN(C)Cc1ccc(C(=O)O)cc1 |
| 32 to 34 | CCCN(C)S(N)(=O)=O |
| 86 to 88 | Cc1nc(N)sc1Cc1cccc(Br)c1 |
| 159 to 161 | Cc1cc(N)ccc1N1CCCC1=O |
| 128 to 130 | O=C(Nc1nc(-c2ccc(Cl)c(Cl)c2)cs1)C(Cl)c1ccccc1 (stereo not given) |
| 133 to 135 | CCOC(=O)c1c(C)noc1N |
| 154 to 156 | O=C(O)c1cc(S)ccc1Cl |
| 166 to 168 | Cc1nc(N2CCOCC2)sc1C=O |
| 142 to 144 | O=C(CCl)NCc1ccc(C(=O)N2CCOCC2)cc1 |
| 127 to 129 | CC(C)n1c(C(=O)O)cc(Br)c1Br |
| 150 to 152 | O=C(O)CCc1nc(-c2ccc(F)cc2)no1 |
| 223 to 225 | COc1cccc(C(N)CC(=O)O)c1 (stereo not given) |
| 54 to 56 | CN(Cc1c(F)cccc1Cl)C(=O)CCl |
| 108 to 110 | CC(C)c1nnc(N)[nH]1 |
| 130 to 132 | O=C(O)c1ccc(OCC2CCCO2)cc1 (stereo not given) |
| 199 to 201 | O=C(O)c1cnc(Cc2ccccc2)s1 |
| 54 to 56 | Cc1ccnc(Br)c1[N+](=O)[O-] |
| 64 to 66 | Nc1cc(I)ccc1Br |
| 182 to 184 | CN(C)c1cccc(Oc2ccc(C(N)=S)cc2)c1 |
| 206 to 208 | CS(=O)(=O)c1ncc[nH]1 |

| melting point [°C] | Compound |
| --- | --- |
| 80 to 82 | Cc1cc(C(=O)CCl)c(C)n1CCc1ccccc1 |
| 175 to 177 | Cc1c(C)n(Cc2ccccc2)c2ncnc(N)c12 |
| 186 to 188 | N#CCc1ccc(C(N)=O)cc1 |
| 212 to 214 | Nc1nccn2ccnc12 |
| 196 to 198 | CC(=O)N(C)c1ccccc1C(=O)O |
| 113 to 115 | COc1cc(CN)ccc1OCCO |
| 179 to 181 | O=C(O)C1(C(=O)Nc2ccc(F)cc2)CC1 |
| 121 to 123 | Nc1cccc(NC(=O)N2CCCCCC2)c1 |
| 171 to 175 | O=C(O)CNC(=O)c1ccc2ccccc2c1 |
| 161 to 163 | N#CCC1C(=O)Nc2ccccc21 (stereo not given) |
| 99 to 101 | O=C(O)C=Cc1ccccc1OCC1CCCCC1 |
| 140 to 142 | O=C(O)CCCn1cncn1 |
| 125 to 127 | CCn1cnnc1Nc1ccccc1 |
| 179 to 181 | O=C(CCl)Nc1cc(-n2cnnn2)ccc1Cl |
| 219 to 221 | Cc1cc(C(=O)O)nn1-c1ccc(Cl)c(Cl)c1 |
| 214 to 216 | O=C1CC(C(=O)O)c2ccc(F)cc2N1 (stereo not given) |
| 122 to 124 | CC1CN(c2ccc(N)cc2C(F)(F)F)CC(C)O1 (stereo not given) |
| 89 to 91 | Nc1ccn(-c2ncccc2Cl)n1 |
| 240 to 242 | Cc1ccnc2nc(C(=O)O)nn12 |
| 43 to 45 | NC1c2ccccc2-c2ccccc21 |
| 221 to 223 | COc1ccc([N+](=O)[O-])cc1NS(=O)(=O)c1ccc(Cl)c(C(=O)O)c1 |
| 236 to 238 | Cn1cc(S(=O)(=O)N2CCCCC2)cc1C(=O)O |
| 243 to 245 | O=C1c2ccccc2C(=O)N1CCc1ncc[nH]1 |

| Compound | melting point [°C] |
| --- | --- |
| Cc1cccc(C(CO)N2CCNCC2)c1 (stereo not given) | 81 to 83 |
| ClCc1nc(-c2cccs2)n[nH]1 | 159 to 161 |
| ClCc1cccc(Cl)n1 | 42 to 44 |
| CCCCCn1cc(C(=O)O)c2ccccc21 | 97 to 99 |
| CC(C)(N)c1nnn[nH]1 | 251 to 253 |
| CCc1cccc2c(C3=CCNCC3)c[nH]c12 | 190 to 192 |
| CCCCCCNC(=O)CCl | 29 to 31 |
